{"source": "patent US20100113494A1", "about": "“13,13a-Dihydroberberine Derivatives For Use In Pharmaceutical Compositions” (SHANGHAI INSTITUTE OF MATERIA MEDICA, CHINESE ACADEMY OF …, priority 2006, published 2010)", "key": {"L6 muscle cells [1]": {"test_system": "L6 muscle cells", "conditions": "400 μM; cited from earlier work"}, "AMP:ATP ratio in cells": {"test_system": "AMP:ATP ratio in cells", "test": "AMP:ATP ratio in cells by high performance liquid chromatography", "assay_type": "cell-based", "conditions": "HPLC"}, "L6 muscle cells [2]": {"test_system": "L6 muscle cells", "test": "glucose absorption model test in L6 muscle cells", "assay_type": "cell-based", "description": "(§1) In our study, the glucose transport rate in L6 muscle cells increased by about 3 times with 10 μM berberine hydrochloride. In a further glucose absorption model test in L6 muscle cells, the glucose absorption in L6 muscle cells increased by more than 2 times with […] berberine hydrochloride in 20 mM glucose medium. […] The improvement in glucose absorption induced by insulin was inhibited obviously, while that induced by berberine was not affected after the treatment with wortmannin, a specific inhibitor of insulin signaling pathway."}, "[3]": {"test_system": "insulin signaling pathway", "test": "immunoblotting assay of L6 muscle cells, insulin signaling pathway", "assay_type": "cell-based"}, "diabetic mice": {"test_system": "diabetic mice", "conditions": "Liu 1996; cited from earlier work"}, "AMPK": {"test_system": "AMPK", "test": "immunoblotting assay of L6 muscle cells, AMPK", "assay_type": "cell-based"}, "βTC3 cells": {"test_system": "βTC3 cells", "conditions": "cited from earlier work"}, "type 2 diabetic patients": {"test_system": "type 2 diabetic patients", "conditions": "cited from earlier work"}, "[4]": {"test_system": "insulin receptor genes and peroxisome proliferator activated receptor genes", "conditions": "Jiang, CN01121906.8; cited from earlier work"}, "p38 MAPK kinase": {"test_system": "p38 MAPK kinase", "test": "immunoblotting assay of L6 muscle cells, p38 MAPK", "assay_type": "cell-based"}, "[5]": {"test_system": "normal mice and alloxan-induced diabetic mice", "conditions": "Chen, Xie 1986, cited from earlier work"}, "HepG2 cells": {"test_system": "HepG2 cells", "conditions": "5-100 μmol of berberine; cited from earlier work"}, "[6]": {"test_system": "C57BL/6J mice fed by high-fat diet", "test": "mouse models with insulin resistance and obesity induced by a high-fat diet (experimental conclusion)", "assay_type": "in vivo", "conditions": "high-fat diet mouse model", "description": "(§2) Ten mice per group were used to perform the efficacy study of the compounds. Dihydroberberine derivative 19 or its sulfate salt was mixed into the high-fat diet, and administered at a dose of 100 mg/kg/day for 2 weeks. After the mice were starved overnight, basal blood sugar value (0 min) was measured by taking blood from tail vein. Then the mice were injected glucose intraperitoneally at a dose of 2 g/kg according to the body weight of the mice in control group which were fed by normal diet followed by measuring blood sugar value at 15, 30, 45, 60, 90 and 120 min respectively and calculating the area under curve (AUC). The body weight and visceral fat of the mice were weighted, and the contents of fatty acid and triglyceride in the blood plasma of the mice were determined."}, "[7]": {"test_system": "C57BL/6J mice fed by high-fat diet", "test": "body weight and visceral fat of high-fat diet obese mice", "assay_type": "in vivo", "conditions": "100 mg/kg/day for 2 weeks", "description": "as §2\n(§3) In FIGS. 2-4, CH-con means the normal mouse, HF-con refers to the obese mouse, HF-BBR19 is the obese mouse treated with dihydroberberine derivative 19 for 2 weeks, and HF-BBR19Y is the obese mouse treated with the sulfate salt of dihydroberberine derivative 19 for 2 weeks.\nThus they may have a potential effect on treating obesity."}, "[8]": {"test_system": "C57BL/6J mice fed by high-fat diet", "test": "intraperitoneal glucose tolerance test (ipGTT) in high-fat diet obese mice", "assay_type": "in vivo", "conditions": "100 mg/kg/day in high-fat diet for 2 weeks, glucose 2 g/kg intraperitoneally", "description": "as §2, §3\nThe mice which had been treated with dihydroberberine derivative 19 or its sulfate salt for 2 weeks and the mice in control group were intraperitoneally injected glucose at 2 g/kg after being starved overnight. […]"}, "[9]": {"test_system": "C57BL/6J mice fed by high-fat diet", "test": "free fatty acid and triglyceride in blood plasma of high-fat diet obese mice", "assay_type": "in vivo", "conditions": "100 mg/kg/day for 2 weeks", "description": "as §2, §3"}, "L6 muscle cells [10]": {"test_system": "L6 muscle cells", "test": "model test on the glucose transport in L6 muscle cells", "assay_type": "cell-based", "conditions": "10 μM", "description": "So, berberine belongs to non-insulin dependent glucose absorption enhancer in the peripheral tissues of the human body. […] In a model test on the glucose transport in L6 muscle cells, the transport rate of 3-methyl glucose in L6 muscle cells increased by about 0.5 times with 400 μM metformin hydrochloride. Berberine hydrochloride could achieve the same effect with less dosage than metformin in a model test on the glucose transport in L6 muscle cells in vitro.\nas §1"}}, "note": "Structures can show the parent of a compound that is named as a salt. Where two headings read alike, the source gives them in different places."}
{"smiles": "CN(C)C(=N)N=C(N)N", "note": "[metformin hydrochloride]", "values": [{"measurement": "increase of transport rate of 3-methyl glucose in L6 muscle cells", "setting": "L6 muscle cells [1]", "value": "about 0.5 times"}]}
{"smiles": "COc1ccc2cc3[n+](cc2c1OC)CCc1cc2c(cc1-3)OCO2", "note": "[berberine, Berberine]", "values": [{"measurement": "AMP:ATP ratio in cells", "setting": "AMP:ATP ratio in cells", "value": "increased significantly"}, {"measurement": "glucose absorption induced by berberine after treatment with AMPK and p38 MAPK specific inhibitors", "setting": "L6 muscle cells [2]; Compound C and SB202190", "value": "obviously lowered"}, {"measurement": "glucose absorption induced by berberine after treatment with wortmannin", "setting": "L6 muscle cells [2]; wortmannin, specific inhibitor of insulin signaling pathway", "value": "not affected"}, {"measurement": "effect on insulin signaling pathway", "setting": "[3]", "value": "little effect"}, {"measurement": "effect on reversing diabetic renal failure", "setting": "diabetic mice", "value": "has a significant effect on reversing diabetic renal failure and"}, {"measurement": "activity of AMPK", "setting": "AMPK", "value": "significantly reinforced"}, {"measurement": "stimulation of βTC3 cells to secrete insulin", "setting": "βTC3 cells", "value": "did not stimulate"}, {"measurement": "fasting blood glucose levels of all patients", "setting": "type 2 diabetic patients; 20 cases not improved by D860, glibenclamide etc., 3 months, Zhang 1999", "value": "levels of all patients were lowered to normal levels 3 months"}, {"measurement": "side effects", "setting": "type 2 diabetic patients; 20 cases, Zhang 1999", "value": "dependent on dose, and no side effects such as hypoglycemia"}, {"measurement": "total efficiency", "setting": "type 2 diabetic patients; 57 cases, berberine added after secondary failure of sulfonylurea alone or with metformin, 1 month, Wang 2002", "value": "efficiency was 81%."}, {"measurement": "adverse effect during the treatment", "setting": "type 2 diabetic patients; 60 cases, 1-3 months, Ni 1988", "value": "hemogram during the treatment and no obvious adverse effect"}, {"measurement": "average decrease of fasting blood glucose", "setting": "type 2 diabetic patients; 60 cases, 1-3 months, Ni 1988", "value": "that the fasting blood glucose decreased averagely by 5.1 mmol/L"}, {"measurement": "toxic and/or adverse effects observed", "setting": "type 2 diabetic patients; 60 cases, Hu 1995", "value": "patients with overweight recovered their normal weights. No"}, {"measurement": "blood serum insulin levels after the treatment", "setting": "type 2 diabetic patients; 68 cases, Shi 2000", "value": "The blood serum insulin levels of the patients increased"}, {"measurement": "total efficiency", "setting": "type 2 diabetic patients; 68 cases, Shi 2000", "value": "significantly, and the total efficiency was 86.8%. The action"}, {"measurement": "time to disappearance of polyuria, polydipsia and polyphagia for all patients", "setting": "type 2 diabetic patients; 75 cases, Yu 1994", "value": "within two weeks after administration of berberine accompanying"}, {"measurement": "blood glucose levels, observed clinically", "setting": "type 2 diabetic patients; Juan WANG 2004", "value": "decreased"}, {"measurement": "blood serum insulin levels, observed clinically", "setting": "type 2 diabetic patients; Juan WANG 2004", "value": "increased"}, {"measurement": "curative effect (blood glucose, blood serum insulin) compared with Diamicron group", "setting": "type 2 diabetic patients; non-insulin dependent diabetic patients, 30 persons per group, 4 weeks, Yu, Yan 1995", "value": "showed that the two groups had similar curative effects and no"}, {"measurement": "patients observed with adverse effects or hypoglycemia", "setting": "type 2 diabetic patients; observed for 4 years, regardless of dose, Yu 1994", "value": "treated with berberine and observed for 4 years, and none of them"}, {"measurement": "expressions of insulin receptor genes and peroxisome proliferator activated receptor genes", "setting": "[4]", "value": "Berberine can interact with insulin receptors and increase"}, {"measurement": "activity of p38 MAPK kinase", "setting": "p38 MAPK kinase", "value": "significantly reinforced"}, {"measurement": "effect on lowering blood glucose", "setting": "[5]; dose of 40 mg/kg", "value": "atherosclerosis. It had a significant effect on lowering blood"}, {"measurement": "lowering blood glucose levels", "setting": "[5]; normal mice and alloxan-induced diabetic mice", "value": "biguanides. It can lower blood glucose levels of both normal mice"}, {"measurement": "increase of glucose consumption in HepG2 cells", "setting": "HepG2 cells", "value": "32-60%"}]}
{"smiles": "COc1ccc2c(c1OC)CN1CCc3cc4c(cc3C1=C2)OCO4", "note": "[Compound 19]", "values": [{"measurement": "improving insulin resistance", "setting": "[6]", "value": "significant effects"}, {"measurement": "relieving fatty liver", "setting": "[6]", "value": "significant effects"}, {"measurement": "increase in body weight versus control group", "setting": "[7]", "value": "significantly less"}, {"measurement": "ratio of intra-abdominal (visceral) fat to body weight versus control group", "setting": "[7]", "value": "lowered significantly"}, {"measurement": "glucose tolerance (ipGTT, area under curve)", "setting": "[8]", "value": "significantly improved"}, {"measurement": "content of free fatty acid (NEFA) in blood plasma", "setting": "[9]; HF-Con 0.76±0.03", "value": "0.6 ± 0.05", "unit": "mmol/L"}, {"measurement": "content of triglyceride TG in blood plasma", "setting": "[9]; HF-Con 1.20±0.05", "value": "0.86 ± 0.08", "unit": "mmol/L"}]}
{"smiles": "COc1ccc2cc3[n+](cc2c1OC)CCc1cc2c(cc1-3)OCO2", "note": "[berberine hydrochloride]", "values": [{"measurement": "increase of glucose transport rate in L6 muscle cells", "setting": "L6 muscle cells [10]", "value": "about 3 times"}, {"measurement": "increase of glucose absorption in L6 muscle cells", "setting": "L6 muscle cells [2]; 5 berberine hydrochloride in 20 mM glucose medium", "value": "more than 2 times"}]}
